Data reported in ChEMBL document CHEMBL1201862, “PubChem BioAssay data set” (2004).
Values joined by “and” are separate entries in the source; they are usually repeats but may differ in a detail not shown here. Identical values can stand only once. Values belong to the compound of their own block, whether it stands above or below them. Active and inactive are the calls of the source.

What was measured:
Cytochrome P450 2D6 = Cytochrome P450 2D6 (Homo sapiens, UniProt P10635);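 note: CYP2D6 member of a cytochrome P450 panel assay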
Chain of Cytochrome P450 2D6 (P10635 whole entry): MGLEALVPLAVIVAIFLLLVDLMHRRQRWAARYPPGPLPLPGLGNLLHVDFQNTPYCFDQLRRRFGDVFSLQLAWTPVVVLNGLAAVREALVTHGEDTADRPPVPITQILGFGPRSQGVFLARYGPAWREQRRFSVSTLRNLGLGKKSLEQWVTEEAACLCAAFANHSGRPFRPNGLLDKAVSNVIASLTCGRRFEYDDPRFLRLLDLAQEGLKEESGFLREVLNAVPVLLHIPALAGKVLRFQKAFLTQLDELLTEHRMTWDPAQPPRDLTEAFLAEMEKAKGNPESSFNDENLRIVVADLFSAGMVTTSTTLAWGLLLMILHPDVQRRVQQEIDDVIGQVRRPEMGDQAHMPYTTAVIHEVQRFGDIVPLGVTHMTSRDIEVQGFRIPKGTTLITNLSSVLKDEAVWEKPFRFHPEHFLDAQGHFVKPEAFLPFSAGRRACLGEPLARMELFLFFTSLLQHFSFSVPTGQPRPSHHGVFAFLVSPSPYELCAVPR

[1] = NIH3T3 cell viability loss – ATP luminescence, mouse fibroblasts, counter-screen, dose response (AID 2010); format: functional, cell-based;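 note: cells exposed to compound for about 90 hours before reading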
[2] = Trypanosoma cruzi growth suppression in host cells – NIH3T3 host cells, beta-gal luminescence, confirmation (AID 2044); format: functional, cell-based;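 note: intracellular parasites grown in NIH/3T3 mouse fibroblasts as host cells; luminescent beta-galactosidase reporter signal from transgenic T. cruzi replicating inside host cells; inhibitors lower the luminescence signal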
Cytochrome P450 1A2 = biological target: T1, Cytochrome P450 1A2 (Homo sapiens, UniProt P05177);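 note: PubChem cytochrome P450 panel assay, CYP1A2 panel member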
T1 sequence (P05177 whole entry): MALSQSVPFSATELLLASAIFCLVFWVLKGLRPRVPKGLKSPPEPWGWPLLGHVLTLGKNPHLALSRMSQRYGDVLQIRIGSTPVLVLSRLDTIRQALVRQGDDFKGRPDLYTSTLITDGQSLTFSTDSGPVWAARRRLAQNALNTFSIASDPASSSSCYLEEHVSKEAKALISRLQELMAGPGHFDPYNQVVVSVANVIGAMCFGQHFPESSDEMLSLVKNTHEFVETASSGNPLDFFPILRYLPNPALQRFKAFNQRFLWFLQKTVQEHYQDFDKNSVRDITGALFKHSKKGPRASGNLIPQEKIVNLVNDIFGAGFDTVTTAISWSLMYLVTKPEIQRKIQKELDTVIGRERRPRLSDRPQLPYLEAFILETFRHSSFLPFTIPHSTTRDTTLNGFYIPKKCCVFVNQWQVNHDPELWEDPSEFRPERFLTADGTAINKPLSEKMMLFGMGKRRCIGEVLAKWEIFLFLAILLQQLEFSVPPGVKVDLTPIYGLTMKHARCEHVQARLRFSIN

Cytochrome P450 2C9 = Cytochrome P450 2C9 (Homo sapiens, UniProt P11712)
Chain of Cytochrome P450 2C9 (P11712 whole entry): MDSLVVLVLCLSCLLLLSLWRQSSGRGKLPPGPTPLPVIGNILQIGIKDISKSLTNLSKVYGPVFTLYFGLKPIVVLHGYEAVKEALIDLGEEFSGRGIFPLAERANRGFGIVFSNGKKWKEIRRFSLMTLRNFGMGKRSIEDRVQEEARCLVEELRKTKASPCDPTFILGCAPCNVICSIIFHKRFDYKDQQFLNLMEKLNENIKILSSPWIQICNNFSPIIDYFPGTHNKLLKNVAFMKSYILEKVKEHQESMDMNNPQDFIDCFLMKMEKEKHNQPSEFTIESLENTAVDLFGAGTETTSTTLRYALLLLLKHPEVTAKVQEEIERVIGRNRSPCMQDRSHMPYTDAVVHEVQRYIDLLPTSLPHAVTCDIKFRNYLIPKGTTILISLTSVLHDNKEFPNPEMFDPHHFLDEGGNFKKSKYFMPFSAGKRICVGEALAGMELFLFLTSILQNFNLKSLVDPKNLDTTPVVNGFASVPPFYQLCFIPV

[3] = Luminescence Cell-Based Dose Retest to Confirm Inhibitors of Cancer Stem Cells. [Related pubchem assays (depositor defined):AID2717, AID2721]; format: functional; conditions: Homo sapiens
INS1 = assay: INS-1E survival protection against cytokine death – cell-based, luminescence, retest, dose response (AID 449756); format: functional; conditions: Rattus norvegicus;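 note: cell death triggered by IL-1 beta plus TNF-alpha plus IFN-gamma mixture; protective hits raise ATP signal compared with cytokine alone wells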
Streptococcus = assay: GAS UMAA2166 growth inhibition – luminescence, BacTiterGlo, counter-screen for streptokinase expression inhibitor project, dose response (AID 1915); format: functional, organism-based;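 note: potency for reduction of bacterial viability or growth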
[4] = tested on: Streptococcus sp. 'group A'; assay: Streptococcus pyogenes SK(-)GAS viability under kanamycin – luminescence, BacTiterGlo, confirmation, counter-screen for streptokinase expression inhibitor project, dose response (AID 1900); format: functional, organism-based

AC50 (Cytochrome P450 2D6): 12.6 µM (inconclusive)
SMILES: C[N+]1(C)CCC(=C(c2ccccc2)c2ccccc2)CC1

SMILES: CC1(C)CC(NCCN2CCN(C3=CC(=C(C#N)C#N)CC(C)(C)C3)CC2)=CC(=C(C#N)C#N)C1
EC50 [1]: > 60 µM (not active)
EC50 [2]: 1.31 µM (active)

AC50 (Cytochrome P450 2D6): 12.6 µM (inconclusive)
AC50 (Cytochrome P450 1A2): 25.1 µM (inconclusive)
SMILES: [O-][S+](Cc1ccc(Br)cc1)Cc1nnc(SCc2ccc(Cl)cc2)n1-c1ccccc1 (stereo unspecified)

AC50 (Cytochrome P450 2C9): 22.4 µM (inconclusive)
AC50 (Cytochrome P450 2D6): 15.8 µM (inconclusive)
SMILES: O=C(/C=C\NCC(=O)c1ccccc1)c1ccc(F)cc1

AC50 (Cytochrome P450 2D6): 31.6 µM (inconclusive)
AC50 (Cytochrome P450 1A2): 12.6 µM (inconclusive)
SMILES: COc1cccc(Cn2c(=O)c(CCc3ccccc3)nc3cnc(N4CCNCC4)nc32)c1

SMILES: O=C(NCc1cccs1)c1cc(-c2ccncc2)nc2ccc(Br)cc12
EC50 [1]: > 60 µM (not active)
EC50 [2]: 2.66 µM (active)

AC50 (Cytochrome P450 2C9): 25.1 µM (inconclusive)
SMILES: COc1cccc(C2=NOC(C(=O)Nc3cccnc3)C2)c1 (stereo unspecified)

SMILES: CCn1c(N2CCN(S(=O)(=O)c3ccc(F)cc3)CC2)nc2ccccc21
AC50 [3]: > 195 µM (inactive)

AC50 (Cytochrome P450 2C9): 3.16 µM (inconclusive)
SMILES: O=c1c(CCc2ccccc2)nc2cnc(N3CCOCC3)nc2n1Cc1cccs1

SMILES: O=P(Oc1ccccc1)(Oc1ccccc1)N1CCN(c2ccc(F)cc2)CC1
AC50 (INS1): 19.4 µM (active)

SMILES: O=C(Oc1ccccc1)N1CCC2(CCN(Cc3ccncc3)CC2)CC1
AC50 (Cytochrome P450 1A2): 25.1 µM (inconclusive)

SMILES: Fc1ccc(CN2CCCN(Cc3nc(-c4ccc5c(c4)OCO5)no3)CC2)cc1
EC50 [1]: > 60 µM (inconclusive)
EC50 [2]: 0.103 µM (active)

SMILES: O=C(NCC1CCCCC1)c1cc2ccccc2cc1O
AC50 [3]: 5.19 µM (active)

AC50 (Cytochrome P450 2C9): 20 µM (inconclusive)
SMILES: COc1ccc(-n2c(S)nnc2CNC(=O)c2ccc(S(=O)(=O)N3CCCC3)cc2)cc1

SMILES: CC1CCN(C(=O)C(=O)c2cn(CC(=O)N3CCCCCC3)c3ccccc23)CC1
EC50 [1]: > 60 µM (not active)
EC50 [2]: 1.26 µM (active)

AC50 (Cytochrome P450 2D6): 39.8 µM (inconclusive)
SMILES: CN(C)c1ncc2ncc(=O)n(CCc3ccccc3)c2n1

AC50 (Cytochrome P450 2D6): 12.6 µM (inconclusive)
SMILES: FC(F)(F)c1cc(CN2CCCC3(CCNCC3)C2)cc(C(F)(F)F)c1

SMILES: S=C(Nc1cccc(Br)c1)N1CCn2cccc2C1c1cccnc1 (stereo unspecified)
EC50 [1]: > 60 µM (not active)
EC50 [2]: 1.78 µM (active)

SMILES: COC(=O)c1ccc(NC(=O)CCN2CCN(Cc3ccccc3)CC2)cc1
EC50 [1]: > 60 µM (inconclusive)
EC50 [2]: 0.123 µM (active)

SMILES: O=C(COc1ccc(F)cc1Cl)Nc1cc(S(=O)(=O)N2CCOCC2)ccc1N1CCCCC1
EC50 [1]: > 60 µM (not active)
EC50 [2]: 2.56 µM (active)

SMILES: CC(C)=C[C@H]1[C@@H](C(=O)OCc2cc3c(cc2Cl)OCO3)C1(C)C
AC50 (Cytochrome P450 2C9): 3.16 µM (inconclusive)
AC50 (Cytochrome P450 2D6): 5.01 µM (inconclusive)
AC50 (Cytochrome P450 1A2): 0.794 µM (inconclusive)

AC50 (Cytochrome P450 2D6): 25.1 µM (inconclusive)
SMILES: O=C(c1ccco1)N1CCC[C@@]2(CCN(c3cccc(-c4ccccc4)c3)C2)C1

SMILES: O=C(CSc1ncnc2c1nnn2Cc1ccc(F)cc1)NC1CCCC1
EC50 [1]: > 30 µM (not active)
EC50 [2]: 3.93 µM (active)

AC50 (Cytochrome P450 2C9): 0.0708 µM (inconclusive)
AC50 (Cytochrome P450 1A2): 28.2 µM (inconclusive)
SMILES: C=CCN1C(=O)CN=C1Nc1ccccc1

AC50 (Cytochrome P450 2C9): 6.31 µM (inconclusive)
SMILES: Cc1ccc(-n2c(C)cc(C(=O)CSc3n[nH]c(N)n3)c2C)cc1

SMILES: Cc1cc2c(NCCc3ccccc3)ncnc2s1
AC50 (INS1): 1.98 µM (active)

SMILES: COc1cc2c(cc1NC(=O)c1cccc(S(=O)(=O)N(C)C)c1)oc1ccccc12
AC50 [3]: 2.54 µM (active)

SMILES: O=[N+]([O-])c1cccc(S(=O)(=O)N2CCC(c3nc(-c4ccncc4)no3)CC2)c1
EC50 [1]: > 30 µM (not active)
EC50 [2]: 1.85 µM (active)

SMILES: CC(Nc1nc(N2CCCCC2)nc2ccccc12)c1ccccc1 (stereo unspecified)
EC50 [1]: 9.37 µM (active)
EC50 [2]: 0.773 µM (active)

SMILES: COc1ccccc1/C=C(/CC(=O)NCc1ccc2c(c1)OCO2)c1nc2ccccc2s1
EC50 [1]: > 60 µM (not active)
EC50 [2]: 2.19 µM (active)

AC50 (Cytochrome P450 1A2): 5.01 µM (inconclusive)
SMILES: CN1CC[C@H](CN2c3ccccc3Sc3ccccc32)C1

AC50 (Cytochrome P450 2D6): 2.51 µM (inconclusive)
SMILES: COc1ccc(-n2nnnc2SCC(=O)Nc2ccccc2)cc1

SMILES: CCN(CC)S(=O)(=O)c1ccc(N2CCN(c3ccccc3OC)CC2)c(N)c1
AC50 (INS1): 3.55 µM (active)

SMILES: CCN1C(=O)C(CC(=O)Nc2ccc(F)cc2)N(CCCN2CCN(c3ccc(F)cc3)CC2)C1=S (stereo unspecified)
AC50 [3]: 3.1 µM (active)

SMILES: CCN(CC)c1ccc(S(=O)(=O)N2CCCCC2)cc1NC(=O)C1=COCCO1
EC50 [1]: > 60 µM (not active)
EC50 [2]: 7.54 µM (active)

AC50 (Cytochrome P450 2C9): 1 µM (inconclusive)
AC50 (Cytochrome P450 2D6): 10 µM (inconclusive)
SMILES: COc1cccc(-c2nc(NCc3ccccc3OC)c3ccccc3n2)c1

SMILES: CC(C)=CCC12Oc3cc(O)ccc3C1(O)Oc1cc3c(c(O)c1C2=O)C=CC(C)(C)O3 (stereo unspecified)
EC50 (Streptococcus): 3.92 µM (active)
EC50 [4]: 3.32 µM (active)

SMILES: CSc1cccc(NC(=S)N(CCCN2CCCC2)Cc2cccn2Cc2ccc(Cl)cc2)c1
EC50 [1]: > 60 µM (not active)
EC50 [2]: 2.25 µM (active)

SMILES: COc1ccccc1NS(=O)(=O)c1cc(NC(=O)Nc2ccc(Cl)cc2Cl)ccc1N1CCCCC1
EC50 [2]: 1.58 µM (active)

AC50 (Cytochrome P450 1A2): 25.1 µM (inconclusive)
SMILES: CN1CCN(S(=O)(=O)c2cc([N+](=O)[O-])ccc2N2CCCCCC2)CC1

SMILES: CCOc1ccccc1N1CCN(c2ncnc3scc(-c4ccc(OC)cc4)c23)CC1
EC50 [1]: > 60 µM (not active)
EC50 [2]: 2.44 µM (active)

SMILES: CCC(=O)c1cc(F)c(N2CCN(S(=O)(=O)c3ccc(C)cc3)CC2)cc1C
EC50 [1]: > 60 µM (not active)
EC50 [2]: 2.68 µM (active)

SMILES: CCOc1cc(N2CCOCC2)c(OCC)cc1NC(=O)c1ccc2ccccc2n1
EC50 [1]: 7.58 µM (active)
EC50 [2]: 2.63 µM (active)

AC50 (Cytochrome P450 2D6): 0.0891 µM (inconclusive)
SMILES: CCC(=O)Nc1ccccc1C(=O)OCC(=O)c1cccc2ccccc12

SMILES: Cc1cc(C)c(OCC(O)CNC(C)(C)C)c(C)c1 (stereo unspecified)
AC50 (INS1): > 120 µM (inactive)

AC50 (Cytochrome P450 2C9): 20 µM (inconclusive)
SMILES: Cc1cnc(NC(=O)CSc2ccc(Cl)cc2)s1

AC50 (Cytochrome P450 1A2): 20 µM (inconclusive)
SMILES: CN(C)C(=O)c1ccc(-c2nc(-n3ccnc3)c3ccccc3n2)cc1

SMILES: CCOC(=O)C1(Cc2cccc(OC)c2)CCCN(Cc2c(C)nn(C(C)C)c2C)C1 (stereo unspecified)
EC50 [1]: > 60 µM (not active)
EC50 [2]: 1.19 µM (active)

SMILES: Cc1ccc(-c2nc3cc(Br)cnc3nc2-c2ccc(C)cc2)cc1
EC50 [1]: > 60 µM (not active)
EC50 [2]: 2.68 µM (active)

SMILES: CC(=O)c1c(C)n(CC(=O)NCc2ccco2)c2ccccc12
AC50 (INS1): > 260 µM (inactive)

SMILES: C=C[C@@H]1c2cccc(C)c2N(S(=O)(=O)c2ccc(C)cc2)[C@H](c2ccc(OC(C)=O)cc2)C1(C#N)C#N
AC50 [3]: 5.13 µM (active)

AC50 (Cytochrome P450 1A2): 22.4 µM (inconclusive)
SMILES: Cc1cccc(NC(NC(=O)c2cccnc2)C(Cl)(Cl)Cl)c1 (stereo unspecified)

SMILES: O=C1C=C(c2ccc(F)cc2OCc2ccccc2)C[C@@H](c2ccc(F)cc2)C1
AC50 [3]: 0.964 µM (active)

SMILES: O=C(NCCOCCOCCNC(=O)c1cccnc1)c1cccnc1
AC50 (INS1): 2.55 µM (active)

AC50 (Cytochrome P450 2C9): 8.91 µM (inconclusive)
SMILES: O=C(Cn1nnc(-c2ccccc2)n1)OCc1ccccc1

SMILES: CCCOc1ccc(-c2nc(N3CCN(CC)CC3)c3ccccc3n2)cc1
AC50 [3]: 5.57 µM (active)

SMILES: COc1ccc(Sc2ccc(-c3nc4cnccn4c3NC3CCCCC3)cc2OC)cc1
AC50 [3]: 2.93 µM (active)

SMILES: CCCCCCSc1cc(-c2nc3ccc(C)cn3c2NCCCC)ccc1OC
AC50 (INS1): 7.09 µM (active)
AC50 [3]: 5.12 µM (active)

AC50 (Cytochrome P450 2C9): 31.6 µM (inconclusive)
AC50 (Cytochrome P450 1A2): 2 µM (inconclusive)
SMILES: Sc1nnc(C2CCCCC2)n1/N=C/c1cccs1

AC50 (Cytochrome P450 2D6): 20 µM (inconclusive)
SMILES: CS(=O)(=O)Nc1cccc(-c2cncnc2NCc2ccccc2)c1

SMILES: NC(=NCc1ccccc1)NC(=O)c1nc(Cl)c(N)nc1N [BENZAMIL]
AC50 (Cytochrome P450 1A2): 12.6 µM (inconclusive) and 10 µM (inconclusive)

AC50 (Cytochrome P450 1A2): 15.8 µM (inconclusive)
SMILES: O=C1c2ccccc2C(=O)C1c1ccccc1 [PHENINDIONE]

SMILES: c1cc(CN2CCCCC2)cc(OCCCNc2nc3ccccc3s2)c1 [ZOLANTIDINE]
AC50 (Cytochrome P450 1A2): 31.6 µM (inconclusive) and 15.8 µM (inconclusive)
